Experimental findings from US20240252506A1 (Hoffmann-La Roche Inc., priority 2021, published 2024) are described below.

≈ marks a conversion by molar mass, not a printed value.

For one assay, the system named is Escherichia coli ATCC 25922. Kind of assay: Minimal Inhibitory Concentration (MIC) determination, broth microdilution (CLSI M07-A10). Conditions: Escherichia coli, ATCC25922, read-out: Escherichia coli growth inhibition MIC, strain Escherichia coli ATCC 25922, 18-24 hours at 35±2° C., lowest concentration for complete growth inhibition (no visible growth). In kind it is cell-based. In outline: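 MIC read visually as the lowest concentration with complete growth inhibition after 18-24 h at 35±2° C, ambient air. Method follows CLSI M07-A10 broth microdilution, two-fold compound series, inoculum standardized to 0.5 McFarland then diluted 1:200.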
For `C[C@H](N)Cn1nc2c(F)c3c(c(F)c2n1)CC(CN1CCC2(CC1)CN(c1cnc4c(n1)NC(=O)CO4)C(=O)O2)C3` [Example 123, 6-[8-[[2-[(2S)-2-aminopropyl]-4,8-difluoro-6,7-dihydro-5H-cyclopenta[f]benzotriazol-6-yl]methyl]-2-oxo-1-oxa-3,8-diazaspiro[4.5]decan-3-yl]-4H-pyrazino[2,3-b][1,4]oxazin-3-one; formic acid], the MIC worked out at 0.125 µg/mL (≈ 0.219 µM).

The assay is the same for the next values; noted with them: Escherichia coli, ATCC25922, strain Escherichia coli ATCC 25922, 18-24 hours at 35±2° C., lowest concentration for complete growth inhibition (no visible growth), read-out: Escherichia coli growth inhibition MIC.
Regarding `CNCc1nc2c(F)c3c(cc2o1)CC(CN1CCC2(CC1)CN(c1cnc4c(n1)NC(=O)CO4)C(=O)O2)C3` (stereo not shown) [Example 93, 6-[8-[[4-fluoro-2-(methylaminomethyl)-6,7-dihydro-5H-cyclopenta[f][1,3]benzoxazol-6-yl]methyl]-2-oxo-1-oxa-3,8-diazaspiro[4.5]decan-3-yl]-4H-pyrazino[2,3-b][1,4]oxazin-3-one], the MIC came out at 0.125 µg/mL (≈ 0.233 µM). Still for that read-out and setting: the figure for `CNCc1nc2c3c(c(F)cc2o1)CC(CN1CCC2(CC1)CN(c1cnc4c(n1)NC(=O)CO4)C(=O)O2)C3` (stereo not shown) [Example 96, 6-[8-[[5-fluoro-2-(methylaminomethyl)-7,8-dihydro-6H-cyclopenta[e][1,3]benzoxazol-7-yl]methyl]-2-oxo-1-oxa-3,8-diazaspiro[4.5]decan-3-yl]-4H-pyrazino[2,3-b][1,4]oxazin-3-one] is 0.125 µg/mL (≈ 0.233 µM).

Turning to `C[C@H](N)c1nc2cc3c(c(F)c2o1)CC(CN1CCC2(CC1)CN(c1cnc4c(n1)NC(=O)CO4)C(=O)O2)C3` (stereo partly drawn) [Example 97, 6-[8-[[2-[(1S)-1-aminoethyl]-8-fluoro-6,7-dihydro-5H-cyclopenta[f][1,3]benzoxazol-6-yl]methyl]-2-oxo-1-oxa-3,8-diazaspiro[4.5]decan-3-yl]-4H-pyrazino[2,3-b][1,4]oxazin-3-one], the MIC stood at 0.125 µg/mL (≈ 0.233 µM). `CNCCn1nc2c(F)c3c(c(F)c2n1)CC(CN1CCC2(CC1)CN(c1cnc4c(n1)NC(=O)CO4)C(=O)O2)C3.O=CO` [Example 117, 6-[8-[[4,8-difluoro-2-[2-(methylamino)ethyl]-6,7-dihydro-5H-cyclopenta[f]benzotriazol-6-yl]methyl]-2-oxo-1-oxa-3,8-diazaspiro[4.5]decan-3-yl]-4H-pyrazino[2,3-b][1,4]oxazin-3-one; formic acid]: the MIC stood at 0.25 µg/mL. On the same count and under the same terms, the figure for `O=C1COc2ncc(N3CC4(CCN(CC5Cc6c(c(F)c7nn(CCNC8CC8)nc7c6F)C5)CC4)OC3=O)nc2N1` [Example 122] is 0.5 µg/mL (≈ 0.839 µM); for `C[C@H](N)Cn1cnc2c(F)c3c(c(F)c21)CC(CN1CCC2(CC1)CN(c1cnc4c(n1)NC(=O)CO4)C(=O)O2)C3` (stereo partly drawn) [Example 128, 6-[8-[[1-[(2S)-2-aminopropyl]-4,8-difluoro-6,7-dihydro-5H-cyclopenta[f]benzimidazol-6-yl]methyl]-2-oxo-1-oxa-3,8-diazaspiro[4.5]decan-3-yl]-4H-pyrazino[2,3-b][1,4]oxazin-3-one] it is 0.25 µg/mL (≈ 0.44 µM). On to `N[C@H]1COC[C@@H]1c1nc2cc3c(c(F)c2o1)CC(CN1CCC2(CC1)CN(c1cnc4c(n1)NC(=O)CO4)C(=O)O2)C3` (stereo partly drawn) [Example 138, 6-[8-[[2-[(3R,4R)-4-Aminotetrahydrofuran-3-yl]-8-fluoro-6,7-dihydro-5H-cyclopenta[f][1,3]benzoxazol-6-yl]methyl]-2-oxo-1-oxa-3,8-diazaspiro[4.5]decan-3-yl]-4H-pyrazino[2,3-b][1,4]oxazin-3-one], for which the MIC worked out at 1 µg/mL (≈ 1.73 µM). Same read-out and setting: the same measure for `N[C@@H](CO)c1nc2cc3c(c(F)c2o1)CC(CN1CCC2(CC1)CN(c1cnc4c(n1)NC(=O)CO4)C(=O)O2)C3` (stereo partly drawn) [Example 143, 6-[8-[[2-[(1S)-1-Amino-2-hydroxy-ethyl]-8-fluoro-6,7-dihydro-5H-cyclopenta[f][1,3]benzoxazol-6-yl]methyl]-2-oxo-1-oxa-3,8-diazaspiro[4.5]decan-3-yl]-4H-pyrazino[2,3-b][1,4]oxazin-3-one]: 0.25 µg/mL (≈ 0.452 µM); for `O=C1COc2ccc(N3CC4(CCN(CC5Cc6cc7nc([C@@H]8C[C@@H](O)CN8)oc7c(F)c6C5)CC4)OC3=O)nc2N1` (stereo partly drawn) [Example 147, 6-[8-[[8-Fluoro-2-[(2S,4R)-4-hydroxypyrrolidin-2-yl]-6,7-dihydro-5H-cyclopenta[f][1,3]benzoxazol-6-yl]methyl]-2-oxo-1-oxa-3,8-diazaspiro[4.5]decan-3-yl]-4H-pyrido[3,2-b][1,4]oxazin-3-one]: 0.5 µg/mL (≈ 0.864 µM). With `C[C@H](C(=O)NCCn1nnc2c(F)c3c(c(F)c21)CC(CN1CCC2(CC1)CN(c1cnc4c(n1)NC(=O)CO4)C(=O)O2)C3)N(C)C` (stereo partly drawn) [Example 149, (2R)—N-[2-[4,8-Difluoro-6-[[2-oxo-3-(3-oxo-4H-pyrazino[2,3-b][1,4]oxazin-6-yl)-1-oxa-3,8-diazaspiro[4.5]decan-8-yl]methyl]-6,7-dihydro-5H-cyclopenta[f]benzotriazol-1-yl]ethyl]-2-(dimethylamino)propanamide], the MIC worked out at 1 µg/mL (≈ 1.53 µM). Consider `C[C@H](C(=O)NCCn1nc2c(F)c3c(c(F)c2n1)CC(CN1CCC2(CC1)CN(c1cnc4c(n1)NC(=O)CO4)C(=O)O2)C3)N(C)C` [Example 150, (2R)-N[2-[4,8-difluoro-6-[[2-oxo-3-(3-oxo-4H-pyrazino[2,3-b][1,4]oxazin-6-yl)-1-oxa-3,8-diazaspiro[4.5]decan-8-yl]methyl]-6,7-dihydro-5H-cyclopenta[f]benzotriazol-2-yl]ethyl]-2-(dimethylamino)propanamide], for which the MIC is 1 µg/mL (≈ 1.53 µM).

On to `C[C@H](C(=O)NCc1nc2cc3c(c(F)c2[nH]1)CC(CN1CCC2(CC1)CN(c1cnc4c(n1)NC(=O)CO4)C(=O)O2)C3)N(C)C` (stereo partly shown) [Example 151], for which the MIC was determined as 0.5 µg/mL (≈ 0.804 µM). On the same count and under the same terms, the figure for `CC(=O)N(C)CCn1nc2c(F)c3c(c(F)c2n1)CC(CN1CCC2(CC1)CN(c1cnc4c(n1)NC(=O)CO4)C(=O)O2)C3` [Example 154, N-[2-[4,8-difluoro-6-[[2-oxo-3-(3-oxo-4H-pyrazino[2,3-b][1,4]oxazin-6-yl)-1-oxa-3,8-diazaspiro[4.5]decan-8-yl]methyl]-6,7-dihydro-5H-cyclopenta[f]benzotriazol-2-yl]ethyl]-N-methyl-acetamide] is 2 µg/mL (≈ 3.27 µM).

Staying with this assay, now noted: strain Escherichia coli ATCC 25922, 18-24 hours at 35±2° C., lowest concentration for complete growth inhibition (no visible growth).
With `O=C1COc2ncc(N3CC4(CCN(CC5Cc6cc7nc([C@@H]8CCN8)oc7c(F)c6C5)CC4)OC3=O)nc2N1` (stereo partly drawn) [Example 107, 6-[8-[[2-[(2S)-azetidin-2-yl]-8-fluoro-6,7-dihydro-5H-cyclopenta[f][1,3]benzoxazol-6-yl]methyl]-2-oxo-1-oxa-3,8-diazaspiro[4.5]decan-3-yl]-4H-pyrazino[2,3-b][1,4]oxazin-3-one], the “Escherichia coli growth inhibition MIC” value turned out to be 0.125 µg/mL. Take `C[C@H](N)Cn1cnc2c(F)c3c(c(F)c21)CC(CN1CCC2(CC1)CN(c1cnc4c(n1)NC(=O)CO4)C(=O)O2)C3` (stereo partly drawn) [Example 129, 6-[8-[[1-[(2S)-2-aminopropyl]-4,8-difluoro-6,7-dihydro-5H-cyclopenta[f]benzimidazol-6-yl]methyl]-2-oxo-1-oxa-3,8-diazaspiro[4.5]decan-3-yl]-4H-pyrazino[2,3-b][1,4]oxazin-3-one; formic acid]: the “Escherichia coli growth inhibition MIC” value amounted to 0.25 µg/mL. For `N[C@H]1COC[C@@H]1c1nc2cc3c(c(F)c2o1)CC(CN1CCC2(CC1)CN(c1cnc4c(n1)NC(=O)CO4)C(=O)O2)C3` (stereo partly drawn) [Example 139, 6-[8-[[2-[(3R,4R)-4-Aminotetrahydrofuran-3-yl]-8-fluoro-6,7-dihydro-5H-cyclopenta[f][1,3]benzoxazol-6-yl]methyl]-2-oxo-1-oxa-3,8-diazaspiro[4.5]decan-3-yl]-4H-pyrazino[2,3-b][1,4]oxazin-3-one], the “Escherichia coli growth inhibition MIC” value stood at 1 µg/mL.

Regarding `O=C1COc2ncc(N3CC4(CCN(CC5Cc6cc7nc([C@H]8CCN8)oc7c(F)c6C5)CC4)OC3=O)nc2N1` (stereo partly drawn) [Example 140, 6-[8-[[2-[(2R)-azetidin-2-yl]-8-fluoro-6,7-dihydro-5H-cyclopenta[f][1,3]benzoxazol-6-yl]methyl]-2-oxo-1-oxa-3,8-diazaspiro[4.5]decan-3-yl]-4H-pyrazino[2,3-b][1,4]oxazin-3-one], the “Escherichia coli growth inhibition MIC” value stood at 0.25 µg/mL. Still for that read-out and setting: the figure for `O=C1COc2ncc(N3CC4(CCN(CC5Cc6cc7nc([C@@H]8C[C@@H](O)CN8)oc7c(F)c6C5)CC4)OC3=O)nc2N1` (stereo partly drawn) [Example 142, 6-[8-[[8-Fluoro-2-[(2S,4R)-4-hydroxypyrrolidin-2-yl]-6,7-dihydro-5H-cyclopenta[f][1,3]benzoxazol-6-yl]methyl]-2-oxo-1-oxa-3,8-diazaspiro[4.5]decan-3-yl]-4H-pyrazino[2,3-b][1,4]oxazin-3-one] is 0.5 µg/mL; for `N[C@@H](CO)c1nc2cc3c(c(F)c2o1)CC(CN1CCC2(CC1)CN(c1cnc4c(n1)NC(=O)CO4)C(=O)O2)C3` (stereo partly drawn) [Example 144, 6-[8-[[2-[(1S)-1-Amino-2-hydroxy-ethyl]-8-fluoro-6,7-dihydro-5H-cyclopenta[f][1,3]benzoxazol-6-yl]methyl]-2-oxo-1-oxa-3,8-diazaspiro[4.5]decan-3-yl]-4H-pyrazino[2,3-b][1,4]oxazin-3-one] it is 0.25 µg/mL; for `CN[C@@H](CO)c1nc2cc3c(c(F)c2o1)CC(CN1CCC2(CC1)CN(c1cnc4c(n1)NC(=O)CO4)C(=O)O2)C3` (stereo partly drawn) [Example 146, 6-[8-[[8-Fluoro-2-[(1S)-2-hydroxy-1-(methylamino)ethyl]-6,7-dihydro-5H-cyclopenta[f][1,3]benzoxazol-6-yl]methyl]-2-oxo-1-oxa-3,8-diazaspiro[4.5]decan-3-yl]-4H-pyrazino[2,3-b][1,4]oxazin-3-one] it is 0.5 µg/mL.

For `O=C1COc2ccc(N3CC4(CCN(CC5Cc6cc7nc([C@@H]8C[C@@H](O)CN8)oc7c(F)c6C5)CC4)OC3=O)nc2N1` (stereo partly drawn) [Example 148, 6-[8-[[8-Fluoro-2-[(2S,4R)-4-hydroxypyrrolidin-2-yl]-6,7-dihydro-5H-cyclopenta[f][1,3]benzoxazol-6-yl]methyl]-2-oxo-1-oxa-3,8-diazaspiro[4.5]decan-3-yl]-4H-pyrido[3,2-b][1,4]oxazin-3-one], the “Escherichia coli growth inhibition MIC” value came to 1 µg/mL.
